Measurements: ChEMBL document CHEMBL5727042, “Heteroaromatic compounds as BTK inhibitors” (2018)

Each molecule was assayed against T1, Tyrosine-protein kinase Tec (Homo sapiens, UniProt P42680) (assay: Lanthscreen Eu Kinase Binding Assay : Lanthscreen Eu Kinase Binding assay […] is performed as described above for BTK except that 1 nM human recombinant full length TEC (His-tagged) kinase and 1 nM Alexa Fluor647-labeled Kinase Tracer #178 were used instead.Representative compounds of the present invention are assessed for inhibition of BTK, BMX, and TXK measuring phosphorylation of a …).
T1 sequence (P42680 whole entry): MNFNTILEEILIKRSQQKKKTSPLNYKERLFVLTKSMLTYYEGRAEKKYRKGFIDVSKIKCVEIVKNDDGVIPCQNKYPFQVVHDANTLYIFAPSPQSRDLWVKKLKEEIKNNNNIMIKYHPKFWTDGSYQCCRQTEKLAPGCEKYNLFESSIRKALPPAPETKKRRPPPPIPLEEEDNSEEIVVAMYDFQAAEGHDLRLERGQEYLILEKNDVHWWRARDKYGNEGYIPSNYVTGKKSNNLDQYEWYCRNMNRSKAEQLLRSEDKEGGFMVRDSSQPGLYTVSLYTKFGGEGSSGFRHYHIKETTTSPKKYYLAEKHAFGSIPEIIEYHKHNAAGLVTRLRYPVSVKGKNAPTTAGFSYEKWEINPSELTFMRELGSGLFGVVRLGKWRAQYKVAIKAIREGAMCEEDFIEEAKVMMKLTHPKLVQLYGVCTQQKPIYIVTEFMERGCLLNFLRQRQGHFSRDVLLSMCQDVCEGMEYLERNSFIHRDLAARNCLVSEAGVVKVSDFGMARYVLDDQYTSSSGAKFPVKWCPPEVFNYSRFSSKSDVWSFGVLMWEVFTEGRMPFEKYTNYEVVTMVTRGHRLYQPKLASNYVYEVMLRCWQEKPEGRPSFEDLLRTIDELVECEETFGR
For `CC#CC(=O)N1CC[C@]2(C1)C[C@H](n1nc(-c3cnn(Cc4cc(C(F)(F)F)ccc4Cl)c3)c(C(N)=O)c1N)C2`, the IC50 was 130 nM.
In the case of `CC#CC(=O)N1CC[C@]2(C1)C[C@H](n1nc(-c3cnn(Cc4cc(C(F)(F)F)ccc4OC)c3)c(C(N)=O)c1N)C2`, the IC50 is reported as 1200 nM.
Molecule `CC#CC(=O)N1CC[C@]2(C1)C[C@H](n1nc(-c3cnn(Cc4ccc(Cl)c(C(F)(F)F)c4)c3)c(C(N)=O)c1N)C2` has an IC50 of 38 nM.
Work on `CC#CC(=O)N1CC[C@]2(C1)C[C@H](n1nc(-c3cnn(Cc4cccc(C(F)(F)F)c4Cl)c3)c(C(N)=O)c1N)C2` yielded an IC50 of 45 nM.
